According to patent US20260176300A1, “N-ARYLPYRAZOLE NOD2 AGONISTS AS PROMOTERS OF IMMUNE CHECKPOINT INHIBITOR THERAPY” (THE SCRIPPS RESEARCH INSTITUTE, priority 2022, published 2026):

Molecular target: T1, NOD2 (Homo sapiens, UniProt Q9HC29)
T1 construct: host or cells: HEK-293T-derived HEK-Blue NF-kB/SEAP reporter cells
Test: NOD2-HEK-Blue NF-κB reporter cell activation assay (NOD2-expressing HEK-293T cells)
Type: cell-based
Details: for NOD2 activation, result in words in the pEC50 column: Table 1; for EC50: calculated, three-parameter dose-response nonlinear regression, read-out: pEC50 (μM), dose-dependent activation of NOD2-expressing HEK-293T cells (converted); for Activation of NOD2-expressing HEK-293T cells, colorimetric assay: 10 µM, 16 h (FIG. 1E); for Potency in structure-activity comparison: relative to TT007, FIG. 2B, 2D, 2F, 6E
Description: FIG. 1(A-F). Virtual screening for small molecule NOD2 agonists. A, Docked structure of muramyl dipeptide (MDP) in the leucine-rich repeat (LRR) domain of rabbit NOD2 (pdb 5IRM). […] B, Results of virtual docking approach with reported chemical structures related to MDP. C, Workflow of virtual screening in which a library was generated using carboxylic acids appended to the L-Val-D-Glu dipeptide and then docked to the NOD2 LRR domain. D, Desmuramyl MDP (dMDP) structures resulting from the virtual screen that were synthesized for further screening. Chemicals shown as a pure enantiomer were synthesized as a racemic mixture. E, Activation of NOD2-expressing HEK-293T cells treated for 16 h with 10 µM of the indicated compound using a colorimetric assay. F, Dose-dependent activation of NOD2-expressing HEK-293T cells using the indicated compounds. Numbers in parentheses represent calculated negative log of the half maximal effective concentration (pEC50) values. NOD activation assays were analyzed using a one-way ANOVA with Dunnett's multiple comparisons test compared to the DMSO control. pEC50 values were derived by a three-parameter dose-response nonlinear regression. ****P<0.0001.
FIG. 2(A-G). Structure-activity relationship studies of 3,5-dimethyl-N-arylpyrazole NOD2 agonists. A, Structures of 3,5-dimethyl-N-arylpyrazole structures synthesized for SAR studies. B-F, Dose-dependent activation of NOD2-expressing HEK-293T cells using the indicated compounds grouped by similar structural perturbations. Numbers in parentheses represent calculated pEC50 values. G, Graph of calculated pEC50 values vs. calculated partition coefficient (clogP). Dotted lines show equivalent lipophilic ligand efficiency (LLE) values. Red arrow indicates optimization of the TT007 scaffold to TT030. pEC50 values were derived by a three-parameter dose-response nonlinear regression.
Cell culture. The following cell lines were used and sourced as follows: HEK-Blue NOD2 (InvivoGen, hkb-hnod2), HEK-Blue NOD1 (InvivoGen, hkb-nod1), HEK-Blue Null2 (hkb-null2), and B16-F10 (ATCC CRL-6475). All cell lines were cultured at 37° C. in 5% CO2 in DMEM (ThermoFisher, 11995065) supplemented with 10% fetal bovine serum (FBS), 100 U mL-1 penicillin, and 100 μg mL-1 streptomycin. Cells were maintained at no greater than 70% confluency and subcultured using TrypLE Express. Cell lines were routinely cultured without antibiotics to ensure no bacterial infection and tested for mycoplasma using a Universal Mycoplasma Detection Kit (ATCC 30-1012K). Primary human peripheral mononuclear blood cells (PBMCs) were cultured at 37° C. in 5% CO2 in RPMI 1640 (ThermoFisher, 61870143) supplemented with 10% FBS. All experimental work using human samples was reviewed and approved by the Scripps Research Institutional Review Board (Protocol IRB-21-7816NOD2).
Reporter cell line activation assay. Approximately 24 h before the assay, culture medium for each of the HEK-Blue reporter cell lines was replaced with a 1:1 mixture of DMEM supplemented with 10% FBS and OptiMEM. On the day of the assay, single cell suspensions (150,000 cells/mL) were produced in HEK-Blue detection medium (InvivoGen, hb-det2). Cells were aliquoted at 200 μL per well of a 96-well plate containing 0.2 μL of a 1000× stock of each test compound in DMSO. Cells were then incubated at 37° C. in 5% CO2 for 8-10 h. To measure activity, wells were then gently pipetted up and down to mix the conditioned medium, and absorbance from the colorimetric product of the secreted alkaline phosphatase was measured at 630 nm. In some assays, cells were stimulated for 16 h with compounds as described above in complete DMEM. Then, 20 μL of the conditioned medium was mixed with 180 μL QUANTI-Blue solution (InvivoGen, rep-qbs) and incubated for 2-4 h at 37° C. Activity was then measured by absorbance as described above.

T1 sequence (Q9HC29 whole entry): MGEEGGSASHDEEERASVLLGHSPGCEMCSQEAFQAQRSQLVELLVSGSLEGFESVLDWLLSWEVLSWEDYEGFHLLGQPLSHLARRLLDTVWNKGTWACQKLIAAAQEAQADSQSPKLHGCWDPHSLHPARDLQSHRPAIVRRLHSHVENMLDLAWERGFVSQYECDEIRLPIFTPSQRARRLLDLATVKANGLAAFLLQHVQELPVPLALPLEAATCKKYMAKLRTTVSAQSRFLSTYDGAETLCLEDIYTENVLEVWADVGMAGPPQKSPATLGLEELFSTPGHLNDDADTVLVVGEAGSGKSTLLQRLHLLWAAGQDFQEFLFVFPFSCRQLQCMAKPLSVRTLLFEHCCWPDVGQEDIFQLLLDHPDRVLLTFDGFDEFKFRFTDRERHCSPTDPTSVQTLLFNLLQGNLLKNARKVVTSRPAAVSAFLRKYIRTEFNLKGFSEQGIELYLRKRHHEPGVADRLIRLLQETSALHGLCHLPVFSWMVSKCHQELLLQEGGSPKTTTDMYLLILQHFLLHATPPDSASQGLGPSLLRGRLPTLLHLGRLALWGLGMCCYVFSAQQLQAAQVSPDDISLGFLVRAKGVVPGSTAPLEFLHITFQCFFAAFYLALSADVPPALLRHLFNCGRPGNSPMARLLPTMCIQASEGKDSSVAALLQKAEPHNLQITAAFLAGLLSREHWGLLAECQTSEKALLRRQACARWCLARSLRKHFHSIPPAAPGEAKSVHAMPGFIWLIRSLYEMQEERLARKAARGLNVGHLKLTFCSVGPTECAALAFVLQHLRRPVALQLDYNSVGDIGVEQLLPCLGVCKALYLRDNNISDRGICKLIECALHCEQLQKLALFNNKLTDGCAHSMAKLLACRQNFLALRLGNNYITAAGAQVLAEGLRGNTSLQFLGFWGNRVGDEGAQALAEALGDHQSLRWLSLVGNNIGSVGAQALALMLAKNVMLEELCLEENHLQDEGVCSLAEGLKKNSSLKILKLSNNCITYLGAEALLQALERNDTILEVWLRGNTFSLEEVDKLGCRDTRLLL

EC50 [µM] | Structure (SMILES) | Potency in structure-activity comparison | also measured
39.8 | CCOC(=O)CC[C@@H](NC(=O)[C@@H](NC(=O)c1cnn(-c2ccc(F)cc2)c1C)C(C)C)C(=O)OCC [TT010, Diethyl (1-(4-fluorophenyl)-5-methyl-1H-pyrazole-4-carbonyl)-L-valyl-D-glutamate] | reduced potency by up to two orders of magnitude | –
10 | CCOC(=O)CC[C@@H](NC(=O)[C@@H](NC(=O)c1cn(-c2ccc(F)cc2)nc1C)C(C)C)C(=O)OCC [TT011, Diethyl (1-(4-fluorophenyl)-3-methyl-1H-pyrazole-4-carbonyl)-L-valyl-D-glutamate] | reduced potency by up to two orders of magnitude | –
10 | CCOC(=O)CC[C@@H](NC(=O)[C@@H](NC(=O)c1cn(-c2ccc(C)cc2)nc1C)C(C)C)C(=O)OCC [TT013, Diethyl (3-methyl-1-(p-tolyl)-1H-pyrazole-4-carbonyl)-L-valyl-D-glutamate] | – | –

The remaining lines, values behind:

Structure (SMILES) | EC50 [µM] | Potency in structure-activity comparison | also measured
CCOC(=O)CC[C@@H](NC(=O)[C@@H](NC(=O)[C@@H]1C[C@H]1c1ccc(Cl)c(Cl)c1)C(C)C)C(=O)OCC (racemic) [TT004, Diethyl (rac-(1R,2R)-2-(3,4-dichlorophenyl)cyclopropane-1-carbonyl)-L-valyl-D-glutamate] | – | – | NOD2 activation, result in words in the pEC50 column: Active
CCOC(=O)CC[C@@H](NC(=O)[C@@H](NC(=O)C(C)Cc1ccc(F)c(F)c1)C(C)C)C(=O)OCC (mixture of isomers) [TT005, Diethyl (3-(3,4-difluorophenyl)-2-methylpropanoyl)-L-valyl-D-glutamate] | 0.631 | – | –
CCOC(=O)CC[C@@H](NC(=O)[C@@H](NC(=O)CNC(=O)/C=C/c1ccccc1)C(C)C)C(=O)OCC [CinGVE, Diethyl cinnamoylglycyl-L-valyl-D-glutamate, reference compound] | 1.26 | – | –
CCOC(=O)CC[C@@H](NC(=O)[C@@H](NC(=O)CCCc1ccccc1)C(C)C)C(=O)OCC [TT001, Diethyl (4-phenylbutanoyl)-L-valyl-D-glutamate] | – | – | NOD2 activation, result in words in the pEC50 column: Active
CCOC(=O)CC[C@@H](NC(=O)[C@@H](NC(=O)/C=C/c1ccc(F)cc1)C(C)C)C(=O)OCC [TT002, Diethyl ((E)-3-(4-fluorophenyl)acryloyl)-L-valyl-D-glutamate] | – | – | NOD2 activation, result in words in the pEC50 column: Active
CCOC(=O)CC[C@@H](NC(=O)[C@@H](NC(=O)C1(Cc2ccc(F)cc2)CCCC1)C(C)C)C(=O)OCC [TT003, Diethyl (1-(4-fluorobenzyl)cyclopentane-1-carbonyl)-L-valyl-D-glutamate] | 0.0501 | – | –
CCOC(=O)CC[C@@H](NC(=O)[C@@H](NC(=O)c1cn(-c2ccccc2)nc1-c1cccc(C)c1)C(C)C)C(=O)OCC [TT008, Diethyl (1-phenyl-3-(m-tolyl)-1H-pyrazole-4-carbonyl)-L-valyl-D-glutamate] | – | – | Activation of NOD2-expressing HEK-293T cells, colorimetric assay: inactive
CCOC(=O)CC[C@@H](NC(=O)[C@@H](NC(=O)c1cn(-c2ccc(F)cc2)nc1-c1cccc(C)c1)C(C)C)C(=O)OCC [TT009, Diethyl (1-(4-fluorophenyl)-3-(m-tolyl)-1H-pyrazole-4-carbonyl)-L-valyl-D-glutamate] | – | did not compensate the lack of the other substituent | Activation of NOD2-expressing HEK-293T cells, colorimetric assay: inactive
CCOC(=O)CC[C@@H](NC(=O)[C@@H](NC(=O)c1cnn(-c2ccc(F)cc2)c1C(C)C)C(C)C)C(=O)OCC [TT012, Diethyl (1-(4-fluorophenyl)-5-isopropyl-1H-pyrazole-4-carbonyl)-L-valyl-D-glutamate] | 31.6 | did not compensate the lack of the other substituent | –
CCOC(=O)CC[C@@H](NC(=O)[C@@H](NC(=O)c1cnn(-c2ccccc2O)c1C)C(C)C)C(=O)OCC [TT014, Diethyl (1-(2-hydroxyphenyl)-5-methyl-1H-pyrazole-4-carbonyl)-L-valyl-D-glutamate] | 31.6 | – | –
